We go through 55 compounds from patent US7511041B2, “Fused azole-pyrimidine derivatives” (Bayer Pharmaceuticals Corporation, priority 2002, dated 2009).

For series [1], the target named is T1, Recombinant human PI3Kγ (full length human PI3K p110γ) (Homo sapiens, UniProt P48736).
T1 construct: full length human PI3K p110γ fused with a His6-tag at the C-terminus; His6 (C); purchased ALEXIS BIOCHEMICALS #201-055-C010; host or cells: S. frugiperda 9 insect cells
In words: Kinase assay of PI3Kγ (solid-phase lipid kinase assay). Format: biochemical. The conditions noted are these: in vitro PI3K-γ inhibitory activity, read-out: in vitro PI3K-gamma.

Read-outs that look alike come from different tables or passages of the source.

T1 sequence (P48736 whole entry, the tested form may be a part): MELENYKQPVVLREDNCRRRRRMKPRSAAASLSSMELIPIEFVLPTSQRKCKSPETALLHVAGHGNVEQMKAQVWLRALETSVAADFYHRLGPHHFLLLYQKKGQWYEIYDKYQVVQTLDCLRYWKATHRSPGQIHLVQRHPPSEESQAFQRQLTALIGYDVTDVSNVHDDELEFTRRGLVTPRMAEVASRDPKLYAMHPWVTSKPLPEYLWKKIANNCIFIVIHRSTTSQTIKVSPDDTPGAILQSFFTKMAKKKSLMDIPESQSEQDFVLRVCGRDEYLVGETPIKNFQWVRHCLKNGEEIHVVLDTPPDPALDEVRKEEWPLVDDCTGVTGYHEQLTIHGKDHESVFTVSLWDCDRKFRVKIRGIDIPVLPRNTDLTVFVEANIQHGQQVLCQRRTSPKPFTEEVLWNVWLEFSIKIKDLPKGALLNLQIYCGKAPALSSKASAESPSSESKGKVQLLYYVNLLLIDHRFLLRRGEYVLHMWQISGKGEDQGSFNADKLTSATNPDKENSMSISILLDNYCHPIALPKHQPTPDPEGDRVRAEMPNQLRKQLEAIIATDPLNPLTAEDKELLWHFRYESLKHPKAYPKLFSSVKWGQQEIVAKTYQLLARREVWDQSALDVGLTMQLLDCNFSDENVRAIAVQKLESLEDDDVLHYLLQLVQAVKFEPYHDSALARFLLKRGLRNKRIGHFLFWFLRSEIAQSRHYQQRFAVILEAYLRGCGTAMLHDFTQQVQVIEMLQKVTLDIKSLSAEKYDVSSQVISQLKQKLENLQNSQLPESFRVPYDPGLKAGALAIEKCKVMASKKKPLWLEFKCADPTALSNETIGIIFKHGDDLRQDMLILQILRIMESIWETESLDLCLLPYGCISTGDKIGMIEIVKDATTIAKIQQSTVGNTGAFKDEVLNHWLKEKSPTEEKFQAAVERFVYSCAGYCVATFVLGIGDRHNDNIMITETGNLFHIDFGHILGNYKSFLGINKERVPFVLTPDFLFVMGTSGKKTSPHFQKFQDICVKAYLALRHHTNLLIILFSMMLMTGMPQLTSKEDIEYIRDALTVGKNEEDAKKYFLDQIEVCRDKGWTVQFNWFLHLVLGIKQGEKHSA

Turning to `CC(=O)Nc1ccc(C(=O)NC2=Nc3ccccc3C3=NCCN23)cn1` [Example 2-151], the melting point was 320 °C (dec.). Besides, the IC50 in series [1] (class symbols) is under 100 nM.

With `CNc1ccc(C(=O)NC2=Nc3ccccc3C3=NCCN23)cn1` [Example 2-153], the melting point fell in the range of 196 to 197 °C. For the same compound, in series [1] (class symbols), the IC50 lay within 100 to 500 nM.

As for `Cl.O=C(NC1=Nc2ccccc2C2=NCCN12)c1ccc(Cl)nc1` [Example 2-155], the melting point is 324 °C (dec.). Besides, the IC50 in series [1] (class symbols) lay within 100 to 500 nM.

`Cc1ccc(C(=O)NC2=Nc3ccccc3C3=NCCN23)c(Cl)n1.Cl` [Example 2-156]: the melting point was 287 °C (dec.). The IC50 in series [1] (class symbols) was in the range of 100 to 500 nM.

With `Cc1nc(N)ccc1C(=O)NC1=Nc2ccccc2C2=NCCN12` [Example 2-157], the melting point was 146 to 148 °C. For the same compound, the IC50 in series [1] (class symbols) is 100 to 500 nM.

With `Cc1cc(C(=O)NC2=Nc3ccccc3C3=NCCN23)cnc1N` [Example 2-159], the melting point lay in the range of 246 to 247 °C. In series [1] (class symbols), the IC50 fell in the range of 100 to 500 nM.

Turning to `Cc1c(C(=O)NC2=Nc3ccccc3C3=NCCN23)cnc(N)c1C.Cl` [Example 2-161], the melting point is 298 °C (dec.). In addition, in series [1] (class symbols), the IC50 was 100 to 500 nM.

For the compound `Nc1cccc(C(=O)NC2=Nc3ccccc3C3=NCCN23)c1.O=C(O)C(F)(F)F` [Example 2-162], the melting point was 191 °C (dec.). Besides, the IC50 in series [1] (class symbols) fell in the range of 100 to 500 nM.

On to `Nc1ccc(C(=O)NC2=Nc3ccccc3C3=NCCN23)cc1.O=C(O)C(F)(F)F` [Example 2-163], for which the melting point was 232 °C (dec.). Further, the IC50 in series [1] (class symbols) fell in the range of 100 to 500 nM.

Regarding `Cl.Cn1cnc2cc(C(=O)NC3=Nc4ccccc4C4=NCCN34)ccc21` [Example 2-167], the melting point was 333 °C (dec.). Besides, the IC50 in series [1] (class symbols) fell in the range of 100 to 500 nM.

Regarding `Cl.O=C(NC1=Nc2ccccc2C2=NCCN12)c1cccc2[nH]ccc12` [Example 2-169], the melting point is 295 °C (dec.). In addition, the IC50 in series [1] (class symbols) fell in the range of 100 to 500 nM.

Take `Cc1nc2ccccn2c1C(=O)NC1=Nc2ccccc2C2=NCCN12` [Example 2-170]: the melting point was in the range of 277 to 279 °C. Besides, the IC50 in series [1] (class symbols) lay in the range of 100 to 500 nM.

`O=C(NC1=Nc2ccccc2C2=NCCN12)c1cnc2[nH]cnc2c1` [Example 2-172]: the melting point is over 300 °C. Further, the IC50 in series [1] (class symbols) was under 100 nM.

As for `Cc1nc2ncccc2cc1C(=O)NC1=Nc2ccccc2C2=NCCN12` [Example 2-174], the melting point was 296 °C (dec.). Besides, in series [1] (class symbols), the IC50 fell in the range of 100 to 500 nM.

The compound `Cl.O=C(NC1=Nc2ccccc2C2=NCCN12)c1cc2cccnc2nc1C(F)(F)F` [Example 2-176] showed a melting point of 248 to 249 °C. Also, the IC50 in series [1] (class symbols) was 100 to 500 nM.

Consider `O=C(NC1=Nc2ccccc2C2=NCCN12)c1ccc2cccnc2n1` [Example 2-177], for which the melting point is 275 °C (dec.). Moreover, the IC50 in series [1] (class symbols) fell in the range of 100 to 500 nM.

Take `O=C(NC1=Nc2ccccc2C2=NCCN12)c1cccs1` [Example 2-178]: the melting point fell in the range of 187 to 188 °C. In series [1] (class symbols), the IC50 is 100 to 500 nM.

On to `Cl.O=C(NC1=Nc2ccccc2C2=NCCN12)c1cccs1` [Example 2-179], for which the melting point is 310 °C (dec.). For the same compound, the IC50 in series [1] (class symbols) is under 100 nM.

With `O=C(NC1=Nc2ccccc2C2=NCCN12)c1sccc1Cl` [Example 2-180], the melting point lay within 198 to 199 °C. Also, the IC50 in series [1] (class symbols) is 100 to 500 nM.

`Cc1ccsc1C(=O)NC1=Nc2ccccc2C2=NCCN12.Cl` [Example 2-182] showed a melting point of over 250 °C. Also, in series [1] (class symbols), the IC50 lay in the range of 100 to 500 nM.

`O=C(NC1=Nc2ccccc2C2=NCCN12)c1ccsc1` [Example 2-183]: the melting point is 167 °C (dec.). Moreover, the IC50 in series [1] (class symbols) fell in the range of 100 to 500 nM.

As for `O=C(NC1=Nc2ccccc2C2=NCCN12)c1ccoc1` [Example 2-185], the melting point fell in the range of 217 to 218 °C. Also, the IC50 in series [1] (class symbols) was in the range of 100 to 500 nM.

On to `Cc1nocc1C(=O)NC1=Nc2ccccc2C2=NCCN12.Cl` [Example 2-186], for which the melting point is 285 °C (dec.). In series [1] (class symbols), the IC50 lay in the range of 100 to 500 nM.

Take `Cc1noc(C)c1C(=O)NC1=Nc2ccccc2C2=NCCN12.Cl` [Example 2-187]: the melting point lay in the range of 280 to 281 °C. Further, the IC50 in series [1] (class symbols) lay within 100 to 500 nM.

In the case of `Cl.O=C(NC1=Nc2ccccc2C2=NCCN12)c1nccs1` [Example 2-188], the melting point was 306 °C (dec.). Also, the IC50 in series [1] (class symbols) is 100 to 500 nM.

For the compound `Cc1nc(C)c(C(=O)NC2=Nc3ccccc3C3=NCCN23)s1` [Example 2-189], the melting point is 243 °C (dec.). Further, the IC50 in series [1] (class symbols) was 100 to 500 nM.

`Cc1nc(C)c(C(=O)NC2=Nc3ccccc3C3=NCCN23)s1.Cl` [Example 2-190]: the melting point was in the range of 289 to 290 °C. Besides, the IC50 in series [1] (class symbols) was under 100 nM.

`CCn1nc(C)cc1C(=O)NC1=Nc2ccccc2C2=NCCN12` [Example 2-191] had a melting point of 207 to 208 °C. In addition, in series [1] (class symbols), the IC50 is 100 to 500 nM.

For `O=C(NC1=Nc2ccccc2C2=NCCN12)c1c[nH]cn1` [Example 2-193], the melting point is 265 °C (dec.). Moreover, the IC50 in series [1] (class symbols) was 100 to 500 nM.

As to `Cl.O=C(NC1=Nc2cc(O)ccc2C2=NCCN12)c1cccnc1` [Example 2-195], the melting point is 270 to 274 °C (dec.). Besides, the IC50 in series [1] (class symbols) is 100 to 500 nM.

Take `Cl.O=C(NC1=Nc2cc(OCCn3cccc3)ccc2C2=NCCN12)c1cccnc1` [Example 2-196]: the melting point was determined as 239 °C. The IC50 in series [1] (class symbols) is 100 to 500 nM.

`O=C(NC1=Nc2cc(OCCO)ccc2C2=NCCN12)c1cccnc1` [Example 2-197]: the melting point is 210 to 215 °C (dec.). Moreover, in series [1] (class symbols), the IC50 was in the range of 100 to 500 nM.

In the case of `O=C(NC1=Nc2cc(OCCCO)ccc2C2=NCCN12)c1cccnc1` [Example 2-199], the melting point was 127 °C. Besides, in series [1] (class symbols), the IC50 is under 100 nM.

Take `Cl.O=C(NC1=Nc2cc(OCCCO)ccc2C2=NCCN12)c1cccnc1` [Example 2-200]: the melting point was 243 °C (dec.). In series [1] (class symbols), the IC50 lay within 100 to 500 nM.

`O=C(NC1=Nc2cc(OCCOCCO)ccc2C2=NCCN12)c1cccnc1` [Example 2-201] showed a melting point of 181 °C. Besides, the IC50 in series [1] (class symbols) lay within 100 to 500 nM.

Consider `Cl.O=C(O)COc1ccc2c(c1)N=C(NC(=O)c1cccnc1)N1CCN=C21` [Example 2-203], for which the melting point is 231 °C (dec.). For the same compound, the IC50 in series [1] (class symbols) lay within 100 to 500 nM.

Take `Cl.O=C1NCC(COc2ccc3c(c2)N=C(NC(=O)c2cccnc2)N2CCN=C32)O1` (centres unmarked) [Example 2-204]: the melting point was 265 to 269 °C (dec.). Also, the IC50 in series [1] (class symbols A-D) lay within 100 to 500 nM.

In the case of `Cl.O=C(NC1=Nc2cc(OCCN3CCOCC3)ccc2C2=NCCN12)c1cccnc1` [Example 2-205], the melting point was 243 to 247 °C (dec.). Further, the IC50 in series [1] (class symbols A-D) is 100 to 500 nM.

`NC(=O)COc1ccc2c(c1)N=C(NC(=O)c1cccnc1)N1CCN=C21` [Example 2-206] registered a melting point of 296 °C. The IC50 in series [1] (class symbols A-D) was in the range of 100 to 500 nM.

`O=C(NC1=Nc2cc(OCC(=O)N3CCOCC3)ccc2C2=NCCN12)c1cccnc1` [Example 2-207]: the melting point was 232 to 236 °C (dec.). Further, in series [1] (class symbols A-D), the IC50 was 100 to 500 nM.

`Cl.O=C(NC1=Nc2cc(OCCCN3C(=O)c4ccccc4C3=O)ccc2C2=NCCN12)c1cccnc1` [Example 2-209] displayed a melting point of 247 °C. Also, the IC50 in series [1] (class symbols A-D) was under 100 nM.

`O=C(NC1=Nc2ccc(O)cc2C2=NCCN12)c1cccnc1` [Example 2-210]: the melting point is over 300 °C. For the same compound, in series [1] (class symbols A-D), the IC50 lay within 100 to 500 nM.

`Cl.O=C(NC1=Nc2ccc(O)cc2C2=NCCN12)c1cccnc1` [Example 2-211] gave a melting point of over 300 °C. In addition, the IC50 in series [1] (class symbols A-D) was under 100 nM.

Consider `O=C(NC1=Nc2ccc(O)cc2C2=NCCN12)c1ccc2[nH]cnc2c1` [Example 2-212], for which the melting point was 296 °C (dec.). Besides, the IC50 in series [1] (class symbols A-D) was 100 to 500 nM.

In turn, `N#CCOc1ccc2c(c1)C1=NCCN1C(NC(=O)c1cccnc1)=N2` [Example 2-213] displayed a melting point of 209 °C. For the same compound, the IC50 in series [1] (class symbols A-D) fell in the range of 100 to 500 nM.

In the case of `O=C(NC1=Nc2ccccc2C2=NCCN12)c1ccccc1` [Example 2-214], the melting point is 201 to 203 °C (dec.). Further, the IC50 in series [1] (class symbols A-D) is 500 to 2000 nM.

For the compound `O=C(NC1=Nc2ccccc2C2=NCCN12)c1ccccc1.O=C(O)C(F)(F)F` [Example 2-215], the melting point lay within 238 to 242 °C. In series [1] (class symbols A-D), the IC50 was in the range of 100 to 500 nM.

Compound `Cc1cccc(C(=O)NC2=Nc3ccccc3C3=NCCN23)c1` [Example 2-216] yielded a melting point of 201 to 203 °C. For the same compound, the IC50 in series [1] (class symbols A-D) was over 2000 nM.

Compound `Cc1cccc(C(=O)NC2=Nc3ccccc3C3=NCCN23)c1.O=C(O)C(F)(F)F` [Example 2-217] showed a melting point of 239 to 241 °C. Further, the IC50 in series [1] (class symbols A-D) fell in the range of 100 to 500 nM.

With `Cc1ccc(C(=O)NC2=Nc3ccccc3C3=NCCN23)cc1` [Example 2-218], the melting point was 185 to 186 °C. For the same compound, in series [1] (class symbols A-D), the IC50 was over 2000 nM.

`Cc1cc(C)cc(C(=O)NC2=Nc3ccccc3C3=NCCN23)c1` [Example 2-219]: the melting point was in the range of 246 to 248 °C. Also, the IC50 in series [1] (class symbols A-D) was over 2000 nM.

Compound `COc1c(C)cc(C(=O)NC2=Nc3ccccc3C3=NCCN23)cc1C` [Example 2-220] yielded a melting point of 216 to 218 °C. Besides, in series [1] (class symbols A-D), the IC50 was over 2000 nM.

Consider `Cc1cc(C(=O)NC2=Nc3ccccc3C3=NCCN23)cc(C)c1[N+](=O)[O-]` [Example 2-222], for which the melting point is 277 °C (dec.). Also, the IC50 in series [1] (class symbols A-D) is over 2000 nM.

In turn, `O=C(NC1=Nc2ccccc2C2=NCCN12)c1ccccc1F` [Example 2-224] showed a melting point of 202 to 204 °C. For the same compound, in series [1] (class symbols A-D), the IC50 lay in the range of 500 to 2000 nM.

`O=C(NC1=Nc2ccccc2C2=NCCN12)c1ccc(F)cc1` [Example 2-225] registered a melting point of 210 to 212 °C. The IC50 in series [1] (class symbols A-D) is over 2000 nM.
